Reference: patent publication US12552804B2, “Tricyclic heterocycles as FGFR inhibitors” (Incyte Corporation, priority 2019, dated 2026)

Biological target: wild-type un-phosphorylated FGFR3 protein (Homo sapiens, UniProt P22607)
Assay: FGFR Enzymatic Assay (FRET detection of peptide phosphorylation)
Type: biochemical
Conditions: pre-incubated for 4 hours, read-out: FGFR3_Ki
Description: The inhibitor potency of the exemplified compounds was determined in an enzyme discontinuous assay that measures peptide phosphorylation using FRET measurements to detect product formation. Inhibitors were serially diluted in DMSO and a volume of 0.2 μL was transferred to the wells of a 384-well plate. A 5 μL/well volume of enzyme isoforms of FGFR (−1, −2, −3 wild-type and mutant isoforms, −4) including phosphorylated and un-phosphorylated proteins diluted in assay buffer (50 mM HEPES, 10 mM MgCl2, 1 mM EGTA, 0.01% Tween-20, 5 mM DTT, pH 7.5) was added to the plate and pre-incubated with inhibitor for 5 to 15 minutes at ambient temperature. Appropriate controls (enzyme blank and enzyme with no inhibitor) were included on the plate. […] The ATP Km values were pre-determined in a separate series of experiments. The reaction plate was incubated at 25° C. for 1 hr and the reactions were ended with the addition of 5 μL/well of quench solution (50 mM Tris, 150 mM NaCl, 0.5 mg/mL BSA, pH 7.8; 45 mM EDTA, 600 nM staurosporin, with Perkin Elmer Lance Reagents at 3.75 nM Eu-antibody PY20 and 180 nM APC-Streptavidin). The plate was allowed to equilibrate for ˜10 minutes at ambient temperature before scanning on a PheraStar plate reader (BMG Labtech) instrument.
Either GraphPad prism or XLfit was used to analyze the data. The IC50 values were derived by fitting the data to a four parameter logistic equation producing a sigmoidal dose-response curve with a variable Hill coefficient. Prism equation: Y=Bottom+(Top−Bottom)/(1+10^((LogIC50−X)*Hill slope)); XLfit equation: Y=(A+((B−A)/(1+((X/C)^D)))) where X is the logarithm of inhibitor concentration and Y is the response.
The data in Table 1 was measured in wild-type un-phosphorylated FGFR3 protein.

wild-type un-phosphorylated FGFR3 protein, sequence (P22607 23-806): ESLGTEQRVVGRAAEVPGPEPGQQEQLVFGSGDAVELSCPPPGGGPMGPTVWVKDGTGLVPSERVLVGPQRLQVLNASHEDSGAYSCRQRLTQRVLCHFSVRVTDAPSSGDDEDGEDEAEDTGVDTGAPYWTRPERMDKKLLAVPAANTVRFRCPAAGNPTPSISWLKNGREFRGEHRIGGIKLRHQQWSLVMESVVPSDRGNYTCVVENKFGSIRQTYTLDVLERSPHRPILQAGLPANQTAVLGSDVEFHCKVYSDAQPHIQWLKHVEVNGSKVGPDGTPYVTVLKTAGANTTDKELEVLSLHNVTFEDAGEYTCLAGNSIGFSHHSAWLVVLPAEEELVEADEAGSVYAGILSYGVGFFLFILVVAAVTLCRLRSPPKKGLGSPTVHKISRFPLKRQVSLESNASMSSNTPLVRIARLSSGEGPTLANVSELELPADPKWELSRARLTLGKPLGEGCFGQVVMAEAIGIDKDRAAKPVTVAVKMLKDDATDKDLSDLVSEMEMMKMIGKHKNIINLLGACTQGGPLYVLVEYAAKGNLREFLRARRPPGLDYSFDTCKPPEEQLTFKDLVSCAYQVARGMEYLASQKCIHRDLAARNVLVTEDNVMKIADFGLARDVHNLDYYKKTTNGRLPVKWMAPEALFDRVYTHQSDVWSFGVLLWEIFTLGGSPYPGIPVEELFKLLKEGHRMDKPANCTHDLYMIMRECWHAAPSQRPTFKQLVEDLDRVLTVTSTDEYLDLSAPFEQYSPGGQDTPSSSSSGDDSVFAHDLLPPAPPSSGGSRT

Ki, 100 to 400 nM:
COc1ccc(-c2nc3c4nc(-c5cnn(C)c5)cnc4ccc3n2C)c(Cl)c1 [Example 19, 2-(2-Chloro-4-methoxyphenyl)-3-methyl-8-(1-methyl-1H-pyrazol-4-yl)-3H-imidazo[4,5-f]quinoxaline]
C=CC(=O)Nc1ccccc1-c1nc2c3cc(-c4cnn(C)c4)cnc3ccn2c1C [Example 36, N-(2-(3-Methyl-9-(1-methyl-1H-pyrazol-4-yl)imidazo[2,1-f][1,6]naphthyridin-2-yl)phenyl)acrylamide]
Cn1cc(-c2cnc3ccn4c(-c5cnn(C)c5)c(-c5ccccc5Cl)nc4c3c2)cn1 [Example 5, 2-(2-Chlorophenyl)-3,9-bis(1-methyl-1H-pyrazol-4-yl)imidazo[2,1-f][1,6]naphthyridine]

Ki, ≥ 400 nM:
CN1CCC(c2nc3c4nc(-c5cnn(C)c5)cnc4ccc3n2C)CC1 [Example 23, 3-Methyl-8-(1-methyl-1H-pyrazol-4-yl)-2-(1-methylpiperidin-4-yl)-3H-imidazo[4,5-f]quinoxaline]

Ki, 10 to 100 nM:
COc1cccc(F)c1-c1nc2c3cc(-c4cnn([C@H]5CCN(C(=O)CO)C5)c4)cnc3ccn2c1C [Example 28, (S)-1-(3-(4-(2-(2-Fluoro-6-methoxyphenyl)-3-methylimidazo[2,1-f][1,6]naphthyridin-9-yl)-1H-pyrazol-1-yl)pyrrolidin-1-yl)-2-hydroxyethan-1-one]
CN(C)C(=O)c1ccc(-n2cc(-c3cnc4ccn5cc(-c6c(Cl)cccc6Cl)nc5c4c3)cn2)cc1 [Example 43, 4-(4-(2-(2,6-Dichlorophenyl)imidazo[2,1-f][1,6]naphthyridin-9-yl)-1H-pyrazol-1-yl)-N,N-dimethylbenzamide]
Cc1c(-c2c(Cl)cccc2Cl)nc2c3cc(-c4cnn(C)c4)c(N(C)C)nc3ccn12 [Example 33, 2-(2,6-Dichlorophenyl)-N,N,3-trimethyl-9-(1-methyl-1H-pyrazol-4-yl)imidazo[2,1-f][1,6]naphthyridin-8-amine]
Cc1c(-c2c(F)cccc2C#N)nc2c3cc(-c4cnn([C@H]5CCN(C(=O)CO)C5)c4)cnc3ccn12 [Example 27, (S)-3-Fluoro-2-(9-(1-(1-(2-hydroxyacetyl)pyrrolidin-3-yl)-1H-pyrazol-4-yl)-3-methylimidazo[2,1-f][1,6]naphthyridin-2-yl)benzonitrile]
Cn1cc(-c2cnc3ccn4c(Cl)c(-c5ccccc5Cl)nc4c3c2)cn1 [Example 10, 3-Chloro-2-(2-chlorophenyl)-9-(1-methyl-1H-pyrazol-4-yl)imidazo[2,1-f][1,6]naphthyridine]
Cn1cc(-c2cnc3ccn4cc(-c5c(F)cccc5F)nc4c3c2)cn1 [Example 11, 2-(2,6-Difluorophenyl)-9-(1-methyl-1H-pyrazol-4-yl)imidazo[2,1-f][1,6]naphthyridine]
Cc1c(-c2c(Cl)cccc2Cl)nc2c3cc(-c4cnn(C)c4)c(O)nc3ccn12 [Example 31, 2-(2,6-Dichlorophenyl)-3-methyl-9-(1-methyl-1H-pyrazol-4-yl)imidazo[2,1-f][1,6]naphthyridin-8-ol]
CC(=O)N1CC(c2cncc(-c3cnc4ccn5c(C)c(-c6c(Cl)cccc6Cl)nc5c4c3)c2)C1 [Example 62, 1-(3-(5-(2-(2,6-Dichlorophenyl)-3-methylimidazo[2,1-f][1,6]naphthyridin-9-yl)pyridin-3-yl)azetidin-1-yl)ethan-1-one]

Ki, < 10 nM:
O=C(O)[C@H]1CC[C@H](n2cc(-c3cnc4ccn5c(C6CC6)c(-c6ccccc6Cl)nc5c4c3)cn2)CC1 [Example 16, (1R,4R)-4-(4-(2-(2-Chlorophenyl)-3-cyclopropylimidazo[2,1-f][1,6]naphthyridin-9-yl)-1H-pyrazol-1-yl)cyclohexane-1-carboxylic acid]
COCC(=O)N[C@H]1CC[C@H](n2cc(-c3cnc4ccn5cc(-c6c(Cl)cccc6Cl)nc5c4c3)cn2)CC1 [Example 44, N-((1r,4r)-4-(4-(2-(2,6-Dichlorophenyl)imidazo[2,1-f][1,6]naphthyridin-9-yl)-1H-pyrazol-1-yl)cyclohexyl)-2-methoxyacetamide]
Cc1c(-c2c(Cl)cccc2Cl)nc2c3cc(-c4cnn([C@H]5CC[C@H](O)CC5)c4)cnc3ccn12 [Example 48, (1r,4r)-4-(4-(2-(2,6-Dichlorophenyl)-3-methylimidazo[2,1-f][1,6]naphthyridin-9-yl)-1H-pyrazol-1-yl)cyclohexan-1-ol]
Cn1c(-c2c(F)cccc2Cl)nc2c3nc(-c4cnn(C5CC(O)C5)c4)cnc3ccc21 (stereo not shown) [Example 21, 3-(4-(2-(2-Chloro-6-fluorophenyl)-3-methyl-3H-imidazo[4,5-f]quinoxalin-8-yl)-1H-pyrazol-1-yl)cyclobutan-1-ol]
CC(=O)N1CCC(n2cc(-c3cnc4ccn5cc(-c6c(Cl)cccc6Cl)nc5c4c3)cn2)C1 (stereo not shown) [Example 15, 1-(3-(4-(2-(2,6-Dichlorophenyl)imidazo[2,1-f][1,6]naphthyridin-9-yl)-1H-pyrazol-1-yl)pyrrolidin-1-yl)ethan-1-one]
CC(=O)N[C@H]1CC[C@H](n2cc(-c3cnc4ccn5c(C6CC6)c(-c6ccccc6Cl)nc5c4c3)cn2)CC1 [Example 17, N-((1R,4R)-4-(4-(2-(2-Chlorophenyl)-3-cyclopropylimidazo[2,1-f][1,6]naphthyridin-9-yl)-1H-pyrazol-1-yl)cyclohexyl)acetamide]
OCc1c(-c2c(Cl)cccc2Cl)nc2c3cc(-c4cnn(C5COC5)c4)cnc3ccn12 [Example 71, (2-(2,6-Dichlorophenyl)-9-(1-(oxetan-3-yl)-1H-pyrazol-4-yl)imidazo[2,1-f][1,6]naphthyridin-3-yl)methanol]
Cc1c(-c2c(Cl)cccc2Cl)nc2c3cc(-c4cnn(C5CN(C(=O)C6(N)CCOCC6)C5)c4)cnc3ccn12 [Example 40, (4-Aminotetrahydro-2H-pyran-4-yl)(3-(4-(2-(2,6-dichlorophenyl)-3-methylimidazo[2,1-f][1,6]naphthyridin-9-yl)-1H-pyrazol-1-yl)azetidin-1-yl)methanone]
Cc1c(-c2c(Cl)cccc2Cl)nc2c3cc(-c4cnn(C5CN(C(=O)c6cocn6)C5)c4)cnc3ccn12 [Example 39, (3-(4-(2-(2,6-Dichlorophenyl)-3-methylimidazo[2,1-f][1,6]naphthyridin-9-yl)-1H-pyrazol-1-yl)azetidin-1-yl)(oxazol-4-yl)methanone]
Cc1c(-c2c(Cl)cccc2Cl)nc2c3cc(-c4cnn(C5CN(C(=O)CC#N)C5)c4)cnc3ccn12 [Example 41, 3-(3-(4-(2-(2,6-Dichlorophenyl)-3-methylimidazo[2,1-f][1,6]naphthyridin-9-yl)-1H-pyrazol-1-yl)azetidin-1-yl)-3-oxopropanenitrile]
CC(=O)N1CC[C@H](n2cc(-c3cnc4ccn5c(C)c(-c6c(Cl)cccc6Cl)nc5c4c3)cn2)C1 [Example 52, (S)-1-(3-(4-(2-(2,6-Dichlorophenyl)-3-methylimidazo[2,1-f][1,6]naphthyridin-9-yl)-1H-pyrazol-1-yl)pyrrolidin-1-yl)ethan-1-one]
CC(C)(CO)n1cc(-c2cnc3ccn4c(CO)c(-c5c(Cl)cccc5Cl)nc4c3c2)cn1 [Example 79, 2-(4-(2-(2,6-Dichlorophenyl)-3-(hydroxymethyl)imidazo[2,1-f][1,6]naphthyridin-9-yl)-1H-pyrazol-1-yl)-2-methylpropan-1-ol]
OCc1c(-c2c(Cl)cccc2Cl)nc2c3cc(-c4cnn(C(F)F)c4)cnc3ccn12 [Example 74, (2-(2,6-Dichlorophenyl)-9-(1-(difluoromethyl)-1H-pyrazol-4-yl)imidazo[2,1-f][1,6]naphthyridin-3-yl)methanol]
